The record followed here is patent publication US20110236326A1, “Skin Whitener” (Cognis IP Management GmbH, priority 2008, published 2011).

The structures appear in SMILES notation.

In data set [1] the test system is Melanocytes (B16 cell line). As to the kind of experiment: Melanogenesis inhibition assay (melanin level and cellular proteins). The format is cell-based. The note with it: 3 days incubation; for Melanin level: B16 cells, OD 475 nm. How it is done: Melanocytes (B16 cell line) are inoculated in standard medium of cell culture with fetal calf serum (FCS). After an incubation of 3 days at 37° C. and CO2=5%, growth medium is exchanged for standard medium with a range of concentrations for the compound to be tested and a control without ingredient. After an incubation of 3 days, the level of melanin is measured by recording the optical density at 475 nm. After washing the cells by a balanced salt, and homogenization in a solution of 0.1 M NaOH, the number of viable cells is determined by the level of cellular proteins (Bradford's method).
The results are expressed in % against control (cell culture medium without compound) as a mean on 1 to 3 assays, each in triplicate.

In data set [2] the test system is mushroom tyrosinase. As to the kind of experiment: Mushroom tyrosinase inhibition assay. The format is biochemical. The note with it: DOPA substrate, pH 6.8. As to the method: In the melanin biosynthesis pathway, tyrosinase is a key enzyme catalyzing the initial steps: the oxidation of tyrosine into dihydroxyphenylalanine (DOPA) and of DOPA into Dopaquinone. In phosphate buffer at pH 6.8, DOPA is mixed with a range of concentration of the compound to be tested, and a control without compound. After addition of mushroom tyrosinase, oxidation of DOPA is recorded by measuring OD at 475 nm during 30 sec. The % of tyrosinase inhibition is expressed in % against control as a mean of 2-3 assays.

For `CN(N)C(=O)Nc1ccccc1` [1-amino-1-methyl-3-phenylurea], the results for the Melanin level in data set [1] (dose 0.001 % (w/v)) and in data set [1] (dose 0.003 % (w/v)) were 92 %/control and 88 %/control, respectively. Further, the “Protein level (rate of cellular proteins, viable cells by Bradford's method)” value (“Protein level” below) in data set [1] (dose 0.001 % (w/v)) is reported as 102 %/control; in data set [1] (dose 0.003 % (w/v)) it was 99 %/control.
As to `Cc1ccc(NC(=O)NN)c(C)c1` [1-amino-3-(2,4-dimethylphenyl)urea], in data set [1] (dose 0.001 % (w/v)), the Melanin level is 98 %/control and the “Protein level” value is recorded as 103 %/control. Moreover, in data set [1] (dose 0.003 % (w/v)), the Melanin level worked out at 87 %/control and the “Protein level” value was 99 %/control.
Consider `NNC(=O)Nc1ccccc1` [1-amino-3-phenylurea], for which the Melanin level in data set [1] (dose 0.001 % (w/v)) came out at 79 %/control; in data set [1] (dose 0.003 % (w/v)), 47 %/control; in data set [1] (dose 0.01 % (w/v)) it was 19 %/control. The “Protein level” value in data set [1] (dose 0.001 % (w/v)) was found to be 95 %/control; in data set [1] (dose 0.003 % (w/v)), 94 %/control; in data set [1] (dose 0.01 % (w/v)) it was 104 %/control. Also, the “% of tyrosinase inhibition” value in data set [2] (dose 0.0001 % (w/v)) was 31%; in data set [2] (dose 0.001 % (w/v)), 55%; in data set [2] (dose 0.01 % (w/v)) it was 89%.
